Literature values in patent US11400105B2, “Anti-inflammatory properties of marine lipid compositions” (AKER BIOMARINE ANTARCTIC AS, priority 2006, dated 2022).

Key:
pre-term infants = settings: for absorption: ref [8]
[1] = ethyl esters (4 g/d); ref [12]

| absorption (pre-term infants) | absorption of DHA from egg lecithin (pre-term infants; ref [7]) | absorption of DHA from triglycerides (pre-term infants; ref [7]) | relative absorption based on the area under the concentration curve [1] | relative absorption compared to oleic acid calculated from peak concentrations [1] | Structure (SMILES) |
| --- | --- | --- | --- | --- | --- |
| 75% | – | – | – | – | CCCCCC=CCC=CCC=CCC=CCCCC(=O)O [AA, 5,8,11,14-eicosatetraenoic acid] |
| 62% | 90% | 80% | 93% | 100% | CC/C=C\C/C=C\C/C=C\C/C=C\C/C=C\C/C=C\CCC(=O)O [DHA, 4,7,10,13,16,19-docosahexanoic acid] |
| – | – | – | 91% | 94% | CCC=CCC=CCC=CCC=CCC=CCCCC(=O)O [EPA, 5,8,11,14,17-eicosapentaenoic acid] |
